Each structure is given as a SMILES string. Some results are limits rather than exact numbers.

The record followed here is article PMC10067855, “Sialidases and fucosidases of Akkermansia muciniphila are crucial for growth on mucin and nutrient sharing with mucus-associated gut bacteria” (Nature Communications, 2023).

Test [1] addresses T1, AmGH181 (Akkermansia muciniphila, UniProt B2ULI1).
T1 sequence (B2ULI1 23-595): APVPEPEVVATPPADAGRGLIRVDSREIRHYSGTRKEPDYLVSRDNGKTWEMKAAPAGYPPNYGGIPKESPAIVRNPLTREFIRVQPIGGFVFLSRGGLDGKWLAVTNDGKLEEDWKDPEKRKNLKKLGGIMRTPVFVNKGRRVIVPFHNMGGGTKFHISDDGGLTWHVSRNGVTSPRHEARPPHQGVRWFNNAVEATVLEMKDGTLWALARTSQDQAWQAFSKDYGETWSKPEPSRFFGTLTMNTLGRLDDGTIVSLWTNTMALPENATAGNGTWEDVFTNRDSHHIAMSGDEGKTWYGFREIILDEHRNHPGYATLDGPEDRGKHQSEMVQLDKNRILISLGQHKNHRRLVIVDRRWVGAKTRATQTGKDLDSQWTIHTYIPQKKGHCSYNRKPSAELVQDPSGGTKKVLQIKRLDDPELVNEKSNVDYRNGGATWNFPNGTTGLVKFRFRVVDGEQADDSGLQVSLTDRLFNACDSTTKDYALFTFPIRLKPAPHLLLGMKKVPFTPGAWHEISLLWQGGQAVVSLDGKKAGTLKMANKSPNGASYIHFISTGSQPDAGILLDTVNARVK
Further details: gene Amuc_1547.

The target of another test is T2, AmGH33A (Akkermansia muciniphila, UniProt B2UPI5).
T2 construct: gene Amuc_0625; mature peptide lacking the signal peptide
T2 sequence (B2UPI5 39-419): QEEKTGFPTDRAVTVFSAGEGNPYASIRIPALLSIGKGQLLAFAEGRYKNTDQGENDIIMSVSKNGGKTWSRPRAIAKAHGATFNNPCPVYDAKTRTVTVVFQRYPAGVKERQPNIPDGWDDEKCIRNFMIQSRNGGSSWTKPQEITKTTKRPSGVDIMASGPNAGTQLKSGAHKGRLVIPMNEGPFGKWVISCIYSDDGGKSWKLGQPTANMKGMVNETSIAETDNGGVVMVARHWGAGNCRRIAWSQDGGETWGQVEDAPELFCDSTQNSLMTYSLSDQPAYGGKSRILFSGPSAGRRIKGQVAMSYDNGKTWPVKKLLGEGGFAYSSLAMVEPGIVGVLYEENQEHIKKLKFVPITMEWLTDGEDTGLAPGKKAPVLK
As to the kind of experiment: inhibition of 4MU-Neu5Ac hydrolysis, fluorescence. It is filed as biochemical.

A further test deals with T3, AmGH33B (Akkermansia muciniphila, UniProt B2UN42).
T3 construct: gene Amuc_1835; mature peptide lacking the signal peptide
T3 sequence (B2UN42 19-674): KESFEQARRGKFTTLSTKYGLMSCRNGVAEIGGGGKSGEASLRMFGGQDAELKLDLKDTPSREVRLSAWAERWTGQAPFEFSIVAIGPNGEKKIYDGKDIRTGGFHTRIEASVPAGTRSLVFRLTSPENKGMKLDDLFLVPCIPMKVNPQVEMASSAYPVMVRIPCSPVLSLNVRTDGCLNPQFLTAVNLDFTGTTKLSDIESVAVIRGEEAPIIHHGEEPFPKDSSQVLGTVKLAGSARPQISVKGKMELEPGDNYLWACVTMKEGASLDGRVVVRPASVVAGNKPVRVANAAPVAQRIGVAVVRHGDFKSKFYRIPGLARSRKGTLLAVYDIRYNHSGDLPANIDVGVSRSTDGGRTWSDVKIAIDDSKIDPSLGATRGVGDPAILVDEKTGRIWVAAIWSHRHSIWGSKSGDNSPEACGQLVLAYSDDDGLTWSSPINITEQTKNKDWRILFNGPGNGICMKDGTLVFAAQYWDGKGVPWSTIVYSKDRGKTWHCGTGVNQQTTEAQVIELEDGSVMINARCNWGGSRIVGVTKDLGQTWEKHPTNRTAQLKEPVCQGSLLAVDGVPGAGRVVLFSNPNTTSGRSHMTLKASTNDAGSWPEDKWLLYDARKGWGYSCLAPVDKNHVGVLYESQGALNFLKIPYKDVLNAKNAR
As to the kind of experiment: inhibition of 4MU-Neu5Ac hydrolysis, fluorescence. The format is biochemical.

Test [2] has as its target T1, AmGH181. As to the kind of experiment: X-ray crystal structure; also inhibition of 4MU-Neu5Ac hydrolysis. The format is biochemical. Further details: gene Amuc_1547; mature peptide lacking the signal peptide. The text has this:
X-ray crystal structure; also inhibition of 4MU-Neu5Ac hydrolysis on AmGH181 | three structures of AmGH181: in ligand free form, bound with the transition-state inhibitor DANA

Regarding `CC(=O)N[C@H]1C(O)O[C@H](CO)[C@H](O)[C@@H]1O[C@@H]1O[C@H](CO)[C@H](O)[C@H](O)[C@H]1O` (stereo partly shown) [GNB, Galacto-N-biose], the “X-ray crystal structure (ternary with DANA)” value at AmGH181 [1] was “bound to both the T-antigen disaccharide (GNB) and DANA, which provides a mimic for a transition state-like substrate complex”.

Take `CC(=O)N[C@H]1[C@H]([C@H](O)[C@H](O)CO)OC(C(=O)O)=C[C@@H]1O` [DANA, N-Acetyl-2,3-dehydro-2-deoxyneuraminic acid]: the IC50 on AmGH33A, against AmGH33B and at AmGH181 [2] was less than 200 µM each time.

A word on the IC50: it is the concentration at which inhibition is half-maximal.
